# Target: T1, recombinant Human β-Amyloid Peptide (1-42) (Homo sapiens, UniProt P05067)
# T1 construct: recombinant Human β-Amyloid Peptide (1-42); purchased BioLegend 843801
# Test: Mass spectrometry (MS) binding assay
# Details: 22 pmol/μL peptide, 1100 pmol/μL compound (50×); for Number of molecules bound to Aβ42: direct infusion Q-TOF MS, stoichiometry of the binding; for Semiquantitative Estimation: semiquantitative evaluation of the binding compared to a blank
# Experimental: Compounds of the invention were screened by mass spectrometry (“MS”) binding assays to assess the ability of compounds to bind to the protein. Approximately 1 mg of the compound was reconstituted in 1 mL of MilliQ water and vortexed vigorously for 2 minutes until completely in solution. The sample was then diluted to create an approximately 2200 pmol/μL solution. One mg of recombinant Human β-Amyloid Peptide (1-42) from BioLegend (99% purity, cat: 843801) was reconstituted in 200 μL of MilliQ water and vortexed vigorously for 2 minutes to solubilize the peptide creating a 5 mg/mL solution. Samples were then diluted to a final concentration 44 pmol/μL prior to mix with drug solution. Samples were then mixed together for a final concentration of 22 pmol/μL (x) for peptide and 1100 pmol/μL for individual compounds (50×). Samples were infused directly in mass specs after adding 50 μL of 10% formic acid in final solution to increase the ionization. The data acquisition was performed using a Waters time of flight mass spectrometer (Q-TOF Micro). The data was acquired using the scanning mode to allow for the detection of the peptide. Samples were infused at room temperature. The mass spectrometer conditions were maintained throughout the study to ensure consistency of the data. The Waters Qtof conditions were as follows: Samples were directly infused into the mass spectrometer at a flow rate of 20 μL/min using in-build Syringe Pump and Hamilton 1 mL Syringe and the acquisition time was kept 2 minutes. Once acquisition of the samples was completed, the raw data was then analyzed using the Water MassLynx 4.1, SCN744. Stoichiometry of the binding was determined and the semiquantitative evaluation of the binding was compared to a blank.
# T1 sequence (P05067 672-713 limits assumed): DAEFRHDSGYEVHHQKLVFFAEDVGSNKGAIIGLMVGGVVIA
Compound,Number of molecules bound to Aβ42,Semiquantitative Estimation
O=C([C@@H]1C[C@H](S(=O)(=O)O)CN1)N(CCO)CCO [Compound 2059],[+2],[++]
N[C@@H](CO)C(=O)NC1CCC(S(=O)(=O)O)C1 (some centres unmarked) [Compound 2012],[+4],[++++]
"NC1CCC(S(=O)(=O)O)C1 (centres unmarked) [Compound 2005, 3-aminocyclopentane-1-sulfonic acid]",[+1],[+]
"O=C(O)C1CCC(S(=O)(=O)O)C1 (centres unmarked) [Compound 2029, 3-Sulfocyclopentane-1-carboxylic acid]",[+3],[+++]
CCN(CC)C(=O)[C@@H]1C[C@@H](S(=O)(=O)O)CN1 [Compound 2085],[+4],[++++]
O=C(NCc1ccccc1)[C@@H]1C[C@@H](S(=O)(=O)O)CN1 [Compound 2083],[+2],[++]
C[C@H](NC(=O)[C@@H]1C[C@H](S(=O)(=O)O)CN1)C(=O)O [Compound 2061],[+4],[++++]
"O=C(NCc1ccccc1)C1CCC(S(=O)(=O)O)C1 (centres unmarked) [Compound 2030, 3-(benzylcarbamoyl)cyclopentane-1-sulfonic acid]",[+1],[+]
O=C([C@@H]1C[C@@H](S(=O)(=O)O)CN1)N(CCO)CCO [Compound 2087],[+4],[++++]
"CS(=O)(=O)CC[C@H](N)C(=O)NC1CCC(S(=O)(=O)O)C1 (stereo partly drawn) [Compound 2014, 3-((S)-2-amino-4-(methylsulfonyl)butanamido)cyclopentane-1-sulfonic acid]",[+3],[+++]
"CC(C)[C@H](N)C(=O)NC1CCC(S(=O)(=O)O)C1 (stereo partly drawn) [Compound 2010, 3-((S)-2-amino-3-methylbutanamido)cyclopentane-1-sulfonic acid]",[+2],[++]
O=C(NC1CCNCC1)[C@@H]1C[C@H](S(=O)(=O)O)CN1 [Compound 2077],[+4],[++++]
"O=C(N[C@@H](Cc1ccc(O)cc1)C(=O)NC1CCC(S(=O)(=O)O)C1)OCc1ccccc1 (stereo partly drawn) [Compound 2021, 3-((S)-2-(((benzyloxy)carbonyl)amino)-3-(4-hydroxyphenyl)propanamido)cyclopentane-1-sulfonic acid]",No Binding,
O=C(N[C@@H](Cc1ccccc1)C(=O)O)C1CCC(S(=O)(=O)O)C1 (some centres unmarked) [Compound 2034],No Binding,
"CC(C)C[C@H](NC(=O)OCc1ccccc1)C(=O)NC1CCC(S(=O)(=O)O)C1 (stereo partly drawn) [Compound 2024, 3-((S)-2-(((benzyloxy)carbonyl)amino)-4-methylpentanamido)cyclopentane-1-sulfonic acid]",No Binding,
O=C(N[C@@H](CO)C(=O)O)C1CCC(S(=O)(=O)O)C1 (some centres unmarked) [Compound 2037],[+1],[+]
"CC(C)C[C@H](N)C(=O)NC1CCC(S(=O)(=O)O)C1 (stereo partly drawn) [Compound 2011, 3-((S)-2-amino-4-methylpentanamido)cyclopentane-1-sulfonic acid]",[+1],[+]
"N[C@@H](Cc1ccc(O)cc1)C(=O)NC1CCC(S(=O)(=O)O)C1 (stereo partly drawn) [Compound 2015, 3-((S)-2-amino-3-(4-hydroxyphenyl)propanamido)cyclopentane-1-sulfonic acid]",[+3],[+++]
"CS(=O)(=O)CC[C@H](NC(=O)OCc1ccccc1)C(=O)NC1CCC(S(=O)(=O)O)C1 (stereo partly drawn) [Compound 2026, 3-((S)-2-(((benzyloxy)carbonyl)amino)-4-(methylsulfonyl)butanamido)cyclopentane-1-sulfonic acid]",[+2],[++]
CNC(=O)[C@@H]1C[C@@H](S(=O)(=O)O)CN1 [Compound 2084],[+5],[+++++]
O=C(NCc1ccccc1)[C@@H]1C[C@H](S(=O)(=O)O)CN1 [Compound 2055],[+4],[++++]
"COC(=O)C1CCC(S(=O)(=O)O)C1 (centres unmarked) [Compound 2028, 3-(Methoxycarbonyl)cyclopentane-1-sulfonic acid]",[+3],[+++]

# From US10590070B2, “Compositions and methods for treating and preventing neurodegenerative disorders” (ALZHEON, INC., priority 2015, dated 2020)
